Like-named read-outs stand apart in the source and are kept apart here.
Tests used:
Format in all cases: biochemical
[1] = biological target: T1, PARK7 (Homo sapiens, UniProt Q99497); assay: Gel-based competition assay with probe 8RK59, PARK7 band; design: GST (N, cleaved yes); made in house; host or cells: E. coli BL21(DE3) Rosetta2
T1 sequence (Q99497 1-189): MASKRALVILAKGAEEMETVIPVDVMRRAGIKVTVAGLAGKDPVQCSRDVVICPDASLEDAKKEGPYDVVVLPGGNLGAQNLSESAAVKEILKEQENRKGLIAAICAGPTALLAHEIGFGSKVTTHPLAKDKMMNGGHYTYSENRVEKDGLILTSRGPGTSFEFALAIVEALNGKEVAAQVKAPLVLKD
Method: (§1) To assess the inhibitory potency and selectivity of these compounds toward PARK7 and UCHL1, we performed a gel-based competition assay (Figure 3A).[36] A mixture of equal amounts of PARK7 and UCHL1 (1 μM) was treated with each of the synthesized compounds (2 μM) for 1 h, followed by incubation with fluorescent probe 8RK59 (2 μM) for 30 min. Samples were resolved by SDS-PAGE, and the gel was scanned for fluorescence. Inhibition of PARK7 or UCHL1 is reflected by the disappearance of their corresponding bands (Figure 3B). […] The inhibition potential of JYQ-88 against PARK7 was assessed in a similar assay where PARK7 was incubated with a serial dilution of JYQ-88 before treatment with probe 8RK59 (Figure 3C). A clear inhibition is visible at 0.5 μM, and full inhibition is achieved between 1 and 2 μM. […] The selectivity of JYQ-88 between UCHL1 and PARK7 was further confirmed in a direct competition assay between equal amounts of PARK7 and UCHL1 (Figure 3F). PARK7 inhibition was observed starting from 0.5 μM JYQ-88, whereas inhibition of UCHL1 was only detected at 20 μM. Since JYQ-88 and 8RK64 are enantiomers, we assumed that the interactions with PARK7 should be similar. To investigate how the chiral center influences the selectivity, we solved the crystal structure of the PARK7−JYQ-88 complex with 1.42 Å resolution (Figure 3G, Table S1, PDB 7PA3). The global positioning of the inhibitor in between the two α-helices was similar to that for 8RK64. […] This way, the thiazolo-pyridine part of JYQ-88 is bound in a similar manner as 8RK64 and the earlier observed interactions are largely the same. The formation of the isothiourea moiety, stabilized by the interaction with Glu18, and the interaction between the thiazole amine and the amide NH2 of the Asn76 side chain are still present. However, the interaction between the azidoacetyl carbonyl with the Leu128 backbone carbonyl can no longer be observed due to the rotation of the azidoacetyl moiety. The Lys132 residue also seems to have rotated (compared to Figure 2C).
(§2) The assay was performed in Tris buffer as described above.

[2] = biological target: T1, PARK7; assay: Gel-based competition assay in HEK293T cell lysate with probe JYQ-92; design: GST (N, cleaved yes); made in house; host or cells: E. coli BL21(DE3) Rosetta2; settings: inhibitor 1 h 37 °C, then JYQ-92 1 μM 30 min, Figure 4E
Source text: We next assessed whether we could measure the inhibitory activity of an inhibitor against PARK7 in a cell lysate using JYQ-92 to label the remaining activity of PARK7. […] The disappearance of the labeling band is a measure for inhibition.

[3] = biological target: T2, UCHL1 (Homo sapiens, UniProt P09936); assay: UCHL1 activity assay (Ub-Rho-Morpholine or Ub-AMC substrate); settings: UCHL1 1 nM, 1 h preincubation
T2 sequence (P09936 1-223): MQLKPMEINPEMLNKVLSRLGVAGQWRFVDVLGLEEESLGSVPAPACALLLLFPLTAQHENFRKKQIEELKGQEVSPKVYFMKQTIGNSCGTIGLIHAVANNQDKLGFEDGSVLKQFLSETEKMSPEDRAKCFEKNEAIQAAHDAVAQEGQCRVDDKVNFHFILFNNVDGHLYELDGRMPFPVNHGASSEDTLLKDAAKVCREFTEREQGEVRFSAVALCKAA

[4] = biological target: T2, UCHL1; assay: Gel-based competition assay with probe 8RK59, UCHL1 band
Method: as §1, §2

[5] = compound 2 μM, 1 h, PARK7 and UCHL1 1 μM each, then 8RK59 2 μM 30 min, Figure 3B
[6] = direct competition, equal amounts of PARK7 and UCHL1, Figure 3F

Concentration at which clear inhibition of PARK7 is visible ([1]; PARK7 1 μM, serial dilution of inhibitor, then 8RK59, Figure 3C): 0.5 µM | Inhibition of PARK7 (disappearance of 8RK59-labeled band) [1, 5]: almost complete inhibition | Concentration from which PARK7 inhibition was observed [1, 6]: 0.5 µM | Inhibitory potency toward PARK7 compared with 8RK64 ([1]; gel-based PARK7 inhibition assays, Figures 3C and S2): slightly more potent | Inhibitor concentration at which the PARK7 labeling band intensity is already decreased [2]: 0.1 µM | Inhibitor concentration from which the PARK7 labeling band has nearly disappeared [2]: 1 µM | IC50 ([3]; Figure 3E, read-out: UCHL1 IC50): 11.1 µM | IC50 ([3]; read-out: UbRhoMP assay UCHL1 IC50): 11.2 µM | Inhibition of UCHL1 (disappearance of 8RK59-labeled band) [4, 5]: without inhibiting | Concentration at which inhibition of UCHL1 was detected [4, 6]: 20 µM
Compound: N#CN1CC[C@@H](C(=O)Nc2nc3c(s2)CN(C(=O)CN=[N+]=[N-])CC3)C1 [JYQ-88, (R)-N-(5-(2-Azidoacetyl)-4,5,6,7-tetrahydrothiazolo[5,4-c]pyridin-2-yl)-1-cyanopyrrolidine-3carboxamide]

— publication PMC9574860, “Chemical Toolkit for PARK7: Potent, Selective, and High-Throughput” (Journal of Medicinal Chemistry, 2022)
